From patent publication US20140046021A1, “SELF-MAGNETIC METAL-SALEN COMPLEX COMPOUND” (IHI CORPORATION, priority 2011, published 2014)

Test: magnetic field-magnetization curve measured with MPMS7 (Quantum Design)
Assay type: physicochemical
Settings: 37 degrees Celsius (310 K)
Source text: Also, FIG. 8 is a graph showing the magnetic field-magnetization curves of the Mn salen complex, the Cr salen complex, and the Fe salen complex.

magnetism from magnetic field-magnetization curve: paramagnetic
Compound: [Co+2].[O-]c1ccccc1C=NCCN=Cc1ccccc1[O-] [Co salen complex]
